Assay results published in patent US20260274892A1, “MACROCYCLIC BROAD SPECTRUM ANTIBIOTICS” (RQx Pharmaceuticals, Inc., priority 2017, published 2026).

Experiments:
[1] = system: Methicillin Resistant Staphylococcus aureus strain USA 200; experiment: Minimum inhibitory concentration (MIC), CLSI broth micro-dilution, S. aureus; format: cell-based; conditions: Staphylococcus aureus, MRSA / USA200, MRSA USA 200, cation adjusted Mueller Hinton Broth + 0.002% Tween-80, 35° C., 22 hours
Summary of the method: (§1)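 Antibacterial potency is measured as MIC by the CLSI broth dilution method. Bacteria at OD600 0.0005 in Tween-80-supplemented cation-adjusted Mueller Hinton broth face ten twofold compound dilutions for 22 h at 35° C.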

[2] = system: Escherichia coli ATCC 25922; experiment: Minimum inhibitory concentration (MIC), CLSI broth micro-dilution, E. coli; format: cell-based; conditions: Escherichia coli, ATCC25922, 22 h
Summary of the method: as §1

[3] = Table 6, cation adjusted Mueller Hinton Broth + 0.002% Tween-80, 35° C.

SMILES | MIC ([1]; Table 6) | MIC [2, 3] | MIC ([1]; Table 8) | MIC ([2]; Table 8, cation adjusted Mueller Hinton Broth + 0.002% Tween-80, 35° C.)
CCCCCOC1CCN(c2nc(C)c(C(=O)N[C@@H](CCN)C(=O)N(C)[C@@H]3C(=O)N[C@@H](C)C(=O)N[C@H](C(=O)NCC#N)Cc4ccc(OCCN)c(c4)-c4cc3ccc4OCCN)c(C)n2)CC1 (racemic) [Compound 317, rac-(8S,11S,14S)-3,18-bis(2-aminoethoxy)-N-(cyanomethyl)-11-methyl-14-[methyl-[rac-(2S)-4-amino-2-[[4,6-dimethyl-2-(4-pentoxy-1-piperidyl)pyrimidine-5-carbonyl]amino]butanoyl]amino]-10,13-dioxo-9,12-diazatricyclo[13.3.1.12,6]icosa-1(18),2(20),3,5,15(19),16-hexaene-8-carboxamide] | 0.047 µM | 0.5 µM |  | 
C=Cc1ccc(-c2nc(C)c(C(=O)N[C@@H](CCN)C(=O)N(C)[C@@H]3C(=O)N[C@@H](C)C(=O)N[C@H](C(=O)NCC#N)Cc4ccc(OCCN)c(c4)-c4cc3ccc4OCCN)c(C)n2)cc1 (racemic) [Compound 265, rac-(8S,11S,14S)-3,18-bis(2-aminoethoxy)-N-(cyanomethyl)-11-methyl-14-[methyl-[rac-(2S)-4-amino-2-[[4,6-dimethyl-2-(4-vinylphenyl)pyrimidine-5-carbonyl]amino]butanoyl]amino]-10,13-dioxo-9,12-diazatricyclo[13.3.1.12,6]icosa-1(18),2(20),3,5,15(19),16-hexaene-8-carboxamide] | 0.068 µM | 0.41 µM |  | 
Cc1nc(-c2ccc3c(c2)OCCC3(C)C)nc(C)c1C(=O)N[C@@H](CCN)C(=O)N(C)[C@@H]1C(=O)N[C@@H](C)C(=O)N[C@H](C(=O)NCC#N)Cc2ccc(OCCN)c(c2)-c2cc1ccc2OCCN (racemic) [Compound 271, rac-(8S,11S,14S)-3,18-bis(2-aminoethoxy)-N-(cyanomethyl)-11-methyl-14-[methyl-[rac-(2S)-4-amino-2-[[2-(4,4-dimethylchroman-7-yl)-4,6-dimethyl-pyrimidine-5-carbonyl]amino]butanoyl]amino]-10,13-dioxo-9,12-diazatricyclo[13.3.1.12,6]icosa-1(18),2(20),3,5,15(19),16-hexaene-8-carboxamide] | 0.032 µM | 0.26 µM |  | 
CCCCCOc1ccc(-c2nc(C)c(C(=O)N[C@@H](CCN)C(=O)N(C)[C@@H]3C(=O)N[C@@H](C)C(=O)N[C@H](C(=O)O)Cc4ccc(OCCN)c(c4)-c4cc3ccc4OCCN)c(C)n2)cc1 (racemic) [Compound 638, rac-(8S,11S,14S)-3,18-bis(2-aminoethoxy)-11-methyl-14-[methyl-[rac-(2S)-4-amino-2-[[4,6-dimethyl-2-(4-pentoxyphenyl)pyrimidine-5-carbonyl]amino]butanoyl]amino]-10,13-dioxo-9,12-diazatricyclo [13.3.1.12,6]icosa-1(18),2(20),3,5,15(19), 16-hexaene-8-carboxylic acid] |  |  | 0.19 µM | 0.22 µM
Cc1nc(-c2ccc(OC(C)C)cc2)ncc1C(=O)N[C@@H](CCN)C(=O)N(C)[C@@H]1C(=O)N[C@@H](C)C(=O)N[C@H](C(=O)NCC#N)Cc2ccc(OCCN)c(c2)-c2cc1ccc2OCCN (racemic) [Compound 246, rac-(8S,11S,14S)-3,18-bis(2-aminoethoxy)-N-(cyanomethyl)-11-methyl-14-[methyl-[rac-(2S)-4-amino-2-[[2-(4-isopropoxyphenyl)-4-methyl-pyrimidine-5-carbonyl]amino]butanoyl]amino]-10,13-dioxo-9,12-diazatricyclo[13.3.1.12,6]icosa-1(18),2(20),3,5,15(19),16-hexaene-8-carboxamide] | 0.067 µM | 0.4 µM |  | 
Cc1nc(-c2cccc(C(C)(C)C)c2)ncc1C(=O)N[C@@H](CCN)C(=O)N(C)[C@@H]1C(=O)N[C@@H](C)C(=O)N[C@H](C(=O)NCC#N)Cc2ccc(OCCN)c(c2)-c2cc1ccc2OCCN (racemic) [Compound 237, rac-(8S,11S,14S)-3,18-bis(2-aminoethoxy)-N-(cyanomethyl)-11-methyl-14-[methyl-[rac-(2S)-4-amino-2-[[2-(3-tert-butylphenyl)-4-methyl-pyrimidine-5-carbonyl]amino]butanoyl]amino]-10,13-dioxo-9,12-diazatricyclo[13.3.1.12,6]icosa-1(18),2(20),3,5,15(19),16-hexaene-8-carboxamide] | 0.0083 µM | 0.27 µM |  | 
CCC(C)(C)c1ccc(-c2nc(C)c(C(=O)N[C@@H](CCN)C(=O)N(C)[C@@H]3C(=O)N[C@@H](C)C(=O)N[C@H](C(=O)NCC#N)Cc4ccc(OCCN)c(c4)-c4cc3ccc4OCCN)c(C)n2)cc1 (racemic) [Compound 261, rac-(8S,11S,14S)-3,18-bis(2-aminoethoxy)-N-(cyanomethyl)-11-methyl-14-[methyl-[rac-(2S)-4-amino-2-[[2-[4-(1,1-dimethylpropyl)phenyl]-4,6-dimethyl-pyrimidine-5-carbonyl]amino]butanoyl]amino]-10,13-dioxo-9,12-diazatricyclo[13.3.1.12,6]icosa-1(18),2(20),3,5,15(19),16-hexaene-8-carboxamide] | 0.014 µM | 0.1 µM |  | 

The next lines start with results.

MIC ([1]; Table 6) | MIC [2, 3] | SMILES | MIC ([1]; Table 8) | MIC ([2]; Table 8, cation adjusted Mueller Hinton Broth + 0.002% Tween-80, 35° C.)
0.016 µM | 0.25 µM | Cc1nc(-c2ccc(C(C)(C)C)cc2)c(Br)cc1C(=O)N[C@@H](CCN)C(=O)N(C)[C@@H]1C(=O)N[C@@H](C)C(=O)N[C@H](C(=O)NCC#N)Cc2ccc(OCCN)c(c2)-c2cc1ccc2OCCN (racemic) [Compound 401, rac-(8S,11S,14S)-3,18-bis(2-aminoethoxy)-N-(cyanomethyl)-11-methyl-14-[methyl-[rac-(2S)-4-amino-2-[[5-bromo-6-(4-tert-butylphenyl)-2-methyl-pyridine-3-carbonyl]amino]butanoyl]amino]-10,13-dioxo-9,12-diazatricyclo[13.3.1.12,6]icosa-1(18),2(20),3,5,15(19),16-hexaene-8-carboxamide] |  | 
0.047 µM | 0.25 µM | CCC(CC)Oc1ccc(-c2nc(C)c(C(=O)N[C@@H](CCN)C(=O)N(C)[C@@H]3C(=O)N[C@@H](C)C(=O)N[C@H](C(=O)NCC#N)Cc4ccc(OCCN)c(c4)-c4cc3ccc4OCCN)c(C)n2)cc1 (racemic) [Compound 339, rac-(8S,11S,14S)-3,18-bis(2-aminoethoxy)-N-(cyanomethyl)-11-methyl-14-[methyl-[rac-(2S)-4-amino-2-[[2-[4-(1-ethylpropoxy)phenyl]-4,6-dimethyl-pyrimidine-5-carbonyl]amino]butanoyl]amino]-10,13-dioxo-9,12-diazatricyclo[13.3.1.12,6]icosa-1(18),2(20),3,5,15(19),16-hexaene-8-carboxamide] |  | 
0.19 µM | 0.75 µM | Cc1nc(-c2ccc3c(c2)CCOC3(C)C)nc(C)c1C(=O)N[C@@H](CCN)C(=O)N(C)[C@@H]1C(=O)N[C@@H](C)C(=O)N[C@H](C(=O)NCC#N)Cc2ccc(OCCN)c(c2)-c2cc1ccc2OCCN (racemic) [Compound 290, rac-(8S,11S,14S)-3,18-bis(2-aminoethoxy)-N-(cyanomethyl)-11-methyl-14-[methyl-[rac-(2S)-4-amino-2-[[2-(1,1-dimethylisochroman-6-yl)-4,6-dimethyl-pyrimidine-5-carbonyl]amino]butanoyl]amino]-10,13-dioxo-9,12-diazatricyclo[13.3.1.12,6]icosa-1(18),2(20),3,5,15(19),16-hexaene-8-carboxamide] |  | 
